In publication PMC10795796 (Biochemistry, 2023):

Biological target: T1, TIR domain of TIR-1 (Caenorhabditis elegans, UniProt Q86DA5)
T1 sequence (Q86DA5 707-930): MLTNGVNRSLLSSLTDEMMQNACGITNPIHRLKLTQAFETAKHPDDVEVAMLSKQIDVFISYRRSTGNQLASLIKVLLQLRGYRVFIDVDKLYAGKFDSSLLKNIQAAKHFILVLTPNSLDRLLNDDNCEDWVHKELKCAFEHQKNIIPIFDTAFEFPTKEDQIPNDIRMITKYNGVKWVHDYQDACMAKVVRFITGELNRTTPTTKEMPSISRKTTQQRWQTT
Test: direct fluorescent base exchange assay
Format: biochemical
Settings: […] °C

SMILES	Km ([…] PC6 (saturating), […] PEG […] Tris pH […] NaCl) [µM]	Km ([…] NAD+ (saturating), […] PEG […] Tris pH […] NaCl) [µM]
NC(=O)c1ccc[n+]([C@@H]2O[C@H](COP(=O)(O)OP(=O)(O)OC[C@H]3O[C@@H](n4cnc5c(N)ncnc54)[C@H](O)[C@@H]3O)[C@@H](O)[C@H]2O)c1 [NAD^+]	630	
CCOc1ccc(/C=C/c2ccncc2)cc1 [PC6]		165
